Tests used:
[1] = In vitro EM field-triggered release of fluorescent DNA from nanoparticles embedded in hydrogel (matrigel) plugs; conditions: hydrogel plug; for release on higher power EM field: higher power 3 kW
[2] = mouse, in vivo
Description: Phenol red free, growth factor reduced matrigel (400 μl, BD Biosciences) was added to 100 μl of particles. To obtain 1.05% total concentration of particles, 75 μl of DNA-conjugated particles (approximately 3.3 mg/ml) were added to 25 μl of similar 50 nm particles (200 mg/ml, Chemicell). Gels (total volume 500 μl) were mixed at 4° C. to prevent gelation.
Prior to injection of matrigel plugs into mice, approval from the Burnham Institute Animal Use Committee was obtained (AUF 05-054). In these experiments, 500 μl volumes were injected subcutaneous near the posterior mammary fat pad of six athymic nude mice and allowed to gel for 45 minutes. Prior to injection, animals were anesthetized with Avertin® (tribromoethanol) and remained under anesthesia during the remainder of the experiment. Three animals were treated with EM fields for two 5 minute doses, with 15 minutes between field applications (+EMF), while three were not treated (−EMF). […] To quantify penetration depth, 8 images of the tissue/phantom boundary were taken for each animal (3 animals per group, 24 images total). […] Using Metamorph software (Universal Imaging), green fluorescence on the tissue side of the boundary was quantified. For each fluorescent “object,” the area and distance from the tissue boundary was measured. An area-weighted average distance was calculated. […]

Substance	release of fluorescein into surrounding buffer on repeated EM field pulses ([1]; EM field pulses 400 kHz, 1.25 kW, 5 minutes every 40 minutes)	increase of the average distance of fluorescence signal, EM field treated over unexposed controls [2]	release on higher power EM field [1]	release on low power EM field pulses ([1]; low power EM field pulses 0.55 kW)
5′-TGA TTC AAG CCG ACT AAC-3′ (DNA TGATTCAAGCCGACTAAC; 5' fluorescein label, further chemistry not given here)	corresponding release of fluorescein	approximately six-fold		
5′-CGCTGATTCAAGCCGACTAACCGC-3′ (DNA CGCTGATTCAAGCCGACTAACCGC; DNA, backbone and methylation of C not given here; fluorescent dye at 5' end, dye not named) [24 bp, HEX, 5′ HEX-labeled 24 bp complement DNA hybridized to 30 bp parent DNA on magnetite nanoparticles]			simultaneous release of both species	
5′-TCG CTG ATT CAA-3′ (DNA TCGCTGATTCAA; DNA, backbone and methylation of C not given here; fluorescent dye at 5' end, dye not named) [12 bp, FAM, 5′ FAM-labeled 12 bp complement DNA hybridized to 30 bp parent DNA on magnetite nanoparticles]			simultaneous release of both species	triggered release predominantly of FAM
